From patent US20100323989A1, “PHARMACEUTICAL COMBINATIONS USEFUL FOR TREATING HCV” (Gilead Sciences, Inc., priority 2009, published 2010) come the findings set out here.

In data set [1] the test system is mutant 1b Con-1 PI-Luc replicons (major HCV NS5B polymerase inhibitor resistance mutations). The data set is described as follows: Transient transfection replicon assay, panel of NS5B polymerase inhibitor resistance mutations. The note with it: against all NS5B mutations tested. The class given is cell-based, HCV genotype 1b. On the technique in general: In antiviral work, replicon cells carry a viral genome segment that copies itself.

A short description of data set [2]: Multiple-dose pharmacokinetic interaction study in healthy subjects (Example 5). Format: in vivo, human. As to the method:
Serial blood samples for analysis of plasma concentrations of Compound 2 were collected up to 120 hours after the morning dose on Days 7 and 21 to determine systemic drug exposure. Glossary of Abbreviations and Definitions of Terms Used in Example 5 • AUCtau The area under the concentration versus time curve over the dosing interval • AUC0-last Area under the concentration versus time curve from time zero to the last quantifiable concentration • AUCinf Area under the concentration versus time curve extrapolated to infinite time, calculated as AUC0-last+(Clast/λz) • BID twice daily • CI confidence interval • Cmax The maximum observed concentration of drug in plasma • Ctau The observed drug concentration at the end of the dosing interval • CV coefficient of variation

The test system of data set [3] is HCV genotype 1b replicon cells (Huh-luc). The data set is described as follows: EC50 determination in HCV genotype 1b Huh-luc replicon cells (luciferase). The class given is cell-based. The note with it: Hepatitis C virus, 72 h, 3 days, average ± standard deviation. Here is the method: HCV genotype 1b replicon cells (Huh-luc) were obtained from Reblikon (Mainz, Germany). The replicon in these cells is designated I389luc-ubi-neo/NS3-3′/ET and encodes a selectable resistance marker (neomycin phosphotransferase) as well as the firefly luciferase reporter gene. Huh-luc cells were maintained in Dulbecco's Modified Eagle's Medium (DMEM; GIBCO, Carlsbad, Calif.) supplemented with 10% fetal bovine serum (FBS; Hyclone, Logan, Utah) and 0.5 mg/mL of G-418 (GIBCO). Cells were passaged twice a week and maintained at subconfluent levels.
Replicon cells were seeded in 96-well plates at a density of 5×10^3 cells per well in 100 μL of DMEM culture medium, excluding G-418. Compounds 1 and 2 were serially diluted 1:3 in 100% DMSO (Sigma). These serial dilutions were added to the cells at a 1:200 dilution to achieve a final concentration of 0.5% DMSO in a total volume of 200 μL. […] HCV replication levels in drug-treated samples were expressed as a percentage of those in untreated controls (defined as 100%), and data were fit to the logistic dose response equation y=a/(1+(x/b)c) using XLFit4 software (IDBS, Emeryville, Calif.). EC50 values were calculated from the resulting equations as described previously (Delaney, W. E., et al., Antimicrobial Agents Chemotherapy, 45(6):1705-1713 (2001)).

Data set [4] has as its system panel of protease inhibitor resistance-associated-mutations (NS3) in 1b PI-luc replicon. The note with it: all NS3 protease mutants tested.
Where [5] appears, read: Compound 1 (40 mg BID) + Compound 2 (75 mg BID) / Compound 2 alone.
[6] abbreviates: coadministration of Compound 1 (40 mg BID) with Compound 2 (75 mg BID) vs Compound 2 alone.

Molecules are shown by their SMILES. Some results are limits rather than exact numbers.

`COc1ccc2c(O[C@@H]3C[C@H]4C(=O)N[C@]5(P(=O)(O)Cc6c(F)cccc6F)C[C@H]5CCCCCCC[C@H](NC(=O)OC5CCCC5)C(=O)N4C3)cc(-c3csc(NC(C)C)n3)nc2c1Cl` [Compound 2]: the “fold change in EC50 values from wild-type” value in data set [1] is recorded as no more than 2.1 fold. In addition, in data set [2] (setting [5]), the “Compound 2 AUCtau, % Geometric Least Square Mean Ratio (90% CI)” value is listed as 75.9 (62.0, 93.0) %; the “Compound 2 Cmax, % Geometric Least Square Mean Ratio (90% CI)” value was 80.0 (66.7, 95.6) %; the “Compound 2 Ctau, % Geometric Least Square Mean Ratio (90% CI)” value is 70.0 (55.9, 87.5) %. In data set [2] (setting [6]), the “decrease in AUCtau of Compound 2” value amounted to 24%, the “decrease in Cmax of Compound 2” value was found to be 20% and the “decrease in Ctau of Compound 2” value was 30%. Moreover, the AUC in data set [2] (plasma, human, oral, Compound 2 (75 mg BID) alone, Day 7, read-out: Compound 2 AUCtau, Mean (% CV)) is 35300 ng·h/mL. Also, in data set [3], the midpoint of the response, the EC50, lay at 11 ± 3 nM.
For the compound `Fc1ccccc1-c1nc2ccn(Cc3ccc(-c4ccc(C(F)(F)F)cc4C(F)(F)F)nn3)cc-2n1` [Compound 1, 5-({6-[2,4-bis(trifluoromethyl)phenyl]pyridazin-3-yl}methyl)-2-(2-fluorophenyl)-5H-imidazo[4,5-c]pyridine], in data set [4], the “fold change in EC50 values from wild-type” value is no more than 1.2 fold. Further, in data set [3], the EC50 (as a rule, the concentration giving half of the maximal effect) turned out to be 3 ± 2 nM.
